The text below walks through data of patent publication US6696407B1, “Huntington's disease treatment comprising administering aldose reductase inhibitors to increase striatal CNTF” (The Regents of the University of California, priority 1997, dated 2004).

Each structure is given as a SMILES string. Marks after values point to notes of the source that are not given here.

Holding throughout (assay type): in vivo, rat
The nature of experiment [1]: Sciatic nerve water content. Particulars: for Water: sciatic nerve, Ponalrestat 50 mg/kg daily oral, two months. The procedure:
(§1) These studies were conducted with the approval of the San Diego Veterans Administration Animal Studies Subcommittee. Female Sprague-Dawley rats (240-300 g; Charles River, San Diego, Calif.) were housed in cages with wire bottoms to reduce contact with urine and feces. Groups were established and fed either a 40% D-galactose diet or a control diet specially formulated by Purina that contained 40% solka floc, a nonnutritive fiber, to balance nutritional intake. All diets contained 100% of the micronutrients required by rats and, with water, were available ad libitum. Each of these diet groups contained animals that were treated with the ARI, Ponalrestat (50 mg/kg), daily by oral gavage. After two months, rats were anesthetized by intraperitoneal injection (1 ml/kg ip) of pentobarbital sodium (12.5 mg/ml) and diazepam (1.25 mg/ml) in bacteriostatic saline. Under deep anesthesia, motor nerve conduction velocity (MNCV) was measured in the left hindlimb prior to removal of the sciatic nerve. […]
For determination of water content and dry weight, distal segments of sciatic nerve were lightly blotted, weighed prior to freeze-drying and reweighed. Nerve polyols were measured by gas chromatography with α-methylmannoside as an internal standard (Mizisin et al., (1993) J. Neurol. Sci. 116:67-72) using a Hewlett Packard 5890 gas chromatograph (Hewlett Packard, Avondale, Pa.) fitted with a flame ionization detector and a 25 m×0.2 mm capillary column (Hewlett Packard Ultra 1). Nerve water and polyol contents are expressed as mg and nmol per mg nerve dry weight, respectively.
The effect of two months of galactose feeding and ARI treatment on body weight, nerve water and polyol content, and MNCV is shown in Table 1. Data are presented as mean ±SD (N=8 to 10) and were analyzed with a one way ANOVA after which multiple comparisons were made with the Student-Newman-Keuls test. […] ARI-treated animals received a daily oral gavage (50 mg/kg) of Ponalrestat (ND—Not detected).

The test system of experiment [2] is CNTF. Description: CNTF-like bioactivity of sciatic nerve homogenates (24 hour survival of E8CG neurons). The procedure:
These studies were conducted with the approval of the San Diego Veterans Administration Animal Studies Subcommittee. Female Sprague-Dawley rats (240-300 g; Charles River, San Diego, Calif.) were housed in cages with wire bottoms to reduce contact with urine and feces. Groups were established and fed either a 40% D-galactose diet or a control diet specially formulated by Purina that contained 40% solka floc, a nonnutritive fiber, to balance nutritional intake. All diets contained 100% of the micronutrients required by rats and, with water, were available ad libitum. Each of these diet groups contained animals that were treated with the ARI, Ponalrestat (50 mg/kg), daily by oral gavage. After two months, rats were anesthetized by intraperitoneal injection (1 ml/kg ip) of pentobarbital sodium (12.5 mg/ml) and diazepam (1.25 mg/ml) in bacteriostatic saline. Under deep anesthesia, motor nerve conduction velocity (MNCV) was measured in the left hindlimb prior to removal of the sciatic nerve. The proximal portion was processed for subsequent light microscopic examination and the distal portion used for gas chromatographic analysis of nerve polyols. The contralateral sciatic nerve was removed and used for assay of CNTF-like neurotrophic activity and either Northern blot or ELISA analysis of CNTF mRNA or protein, respectively.
Bioassays were performed on extracts of sciatic nerve as described previously by Calcutt et al. (1992) Brain Res. 575:320-324. Briefly, 4 mm segments were homogenized in cold Hank's balanced salt solution, centrifuged and the soluble supernatant aspirated. An aliquot of the supernatant was used to determine the amount of protein using the Bradford assay. The remaining supernatant was used to assay CNTF-like activity by the ability to support the 24 hour survival of day eight embryonic chick ciliary ganglia (E8CG) neurons. E8CG neurons were obtained from chick ciliary ganglia after trypsin treatment and trituration in Dulbecco's Modified Eagle's Medium plus 10% fetal calf serum (DMEM+10% FCS). After seeding onto a tissue culture dish for 2.5 hours to allow attachment of nonneuronal cells, unattached neurons were collected, counted and added to 96-well microtiter plates (500 neurons/well) precoated with polyornithine and laminin. Nerve homogenates were serially diluted in DMEM+10% FCS, added to the microtiter plates and incubated for 24 hours. A dose-response curve using rat recombinant CNTF was used as a standard and to establish the maximum CNTF effect for each assay. […] Cells were then fixed and the number of surviving, intact, blue-staining cells counted using phase contrast microscopy. […]

A further experiment concerns CNTF mRNA. The experiment is described as follows: Sciatic nerve CNTF mRNA by Northern blot. Particulars: control and galactose-fed rats. The procedure: as §1, with “After two months, rats were anesthetized by intraperitoneal injection (1 ml/kg ip) of pentobarbital sodium (12.5 mg/ml) and diazepam (1.25 mg/ml) in bacteriostatic saline.” left out
CNTF mRNA levels in sciatic nerve were obtained by first homogenizing 1 cm segments of nerve on ice for 30 seconds in 4 M guanidine thiocyanate containing 0.1 M β-mercaptoethanol, 25 mM sodium citrate and 0.5% sarcosyl (pH 7.0). […] Autoradiographic bands were quantified using an Ultrascan XL laser densitometer (LKB, Uppsala, Sweden). Ratios of CNTF:GAPDH were determined using optical densities in the linear range for both probes.

Experiment [3] concerns CNTF. The experiment is described as follows: Sciatic nerve CNTF protein by ELISA. Particulars: P<0.05. As for the experimental part: as §1
CNTF protein was determined with an ELISA that utilizes a monoclonal capture antibody which recognizes a non-C-terminal epitope on both rat and human CNTF (Regeneron, Tarrytown, N.Y.). […] The reaction was stopped with 0.5 N H2SO4 and the plates read at two wavelengths (490 nm and 650 nm).
(An ELISA detects its analyte on a solid surface through an enzyme-linked reagent.)

As for `O=C(O)Cc1nn(Cc2ccc(Br)cc2F)c(=O)c2ccccc12` [Ponalrestat, 3-(4-bromo-2-fluorobenzyl)-4-oxo-3H-phthalazin-1-ylacetic acid], in experiment [1] (galactose-fed rats), the “Nerve water content (in words)” value was “restored”. Moreover, the results for the Water in experiment [1] (40% D-galactose diet rats) and in experiment [1] (control diet rats) were 1.8 ± 0.3^a mg/mg dry wt and 1.8 ± 0.1^a mg/mg dry wt, respectively. Moreover, the “Increase of CNTF associated activity compared to normal rats that did not receive any ARI” value in the experiment on CNTF [2] (normal rats, survival of embryonic chick ciliary ganglia neurons) was “two and one-half fold increase”. In the experiment on CNTF [2] (sciatic nerve, control diet rats, 50 mg/kg daily oral, two months), the “Increase of CNTF-like bioactivity (TU/ml) compared to untreated control animals” value was roughly 250%. Further, the “CNTF-like bioactivity relative to control levels” value with CNTF [2] (sciatic nerve, galactose-fed rats with ARI) was “not restored to control levels”. For the same compound, the “Increase of CNTF-like bioactivity (TU/ml) compared to the untreated galactose group” value in the experiment with CNTF [2] (sciatic nerve, galactose-fed rats, 50 mg/kg daily oral, two months, P<0.05) turned out to be 60%. For the same compound, the “Level of CNTF message, CNTF:GAPDH ratios” value in the experiment with CNTF mRNA is “no marked effect”. Also, the “Increase of CNTF detected by ELISA relative to untreated control rats” value in the experiment on CNTF [3] (control animals) and in the experiment on CNTF [3] (galactose-fed animals) was 50% each time.
